Assay [1] concerns Puccinia recondita—PUCCRT. Put plainly: Brown Rust of Wheat, in vivo whole plant, 24 Hour Protectant. The note with it: for pest or weed control at 100 ppm: Puccinia, control of fungal infection vs untreated plants, read-out: PUCCRT in vivo 1 Day Protectant.
The test system of the next assay is Septoria tritici—SEPTTR. The experiment in a line: Leaf Blotch of Wheat, in vivo whole plant, 24 Hour Protectant. The note with it: Zymoseptoria tritici, 24 h, read-out: SEPTTR in vivo 1 Day Protectant.
Assay [2] has as its system Phytophthora infestans (PHYTIN). Put plainly: microbe, parasite or virus in culture. Conditions: Phytophthora infestans, read-out: PHYTIN in vitro Growth Inhibition. In kind it is cell-based.
Assay [3] deals with Mycosphaerella graminicola (Septoria tritici—SEPTTR). The experiment in a line: In vitro fungal growth inhibition, Mycosphaerella graminicola (SEPTTR). The format is cell-based. Conditions: Zymoseptoria tritici, read-out: SEPTTR in vitro Growth Inhibition.
Assay [4] has as its system Leptosphaeria nodorum—LEPTNO. The experiment in a line: Glume Blotch of Wheat, in vivo whole plant, 24 Hour Protectant. The note with it: for pest or weed control at 100 ppm: Leptosphaeria, read-out: LEPTNO in vivo 1 Day Protectant.
The subject of assay [5] is Magnaporthe grisea (Pyricularia oryzae—PYRIOR). The experiment in a line: microbe, parasite or virus in culture. In kind it is cell-based. Conditions: Pyricularia oryzae, read-out: PYRIOR in vitro Growth Inhibition.
In assay [6] the test system is Phytophthora infestans—PHYTIN. The experiment in a line: whole plant or invertebrate. In kind it is in vivo. Conditions: Phytophthora, in Solanum lycopersicum, 24 h, read-out: PHYTIN in vivo 1 Day Protectant.
Assay [7] has as its system Rhizoctonia solani (RHIZSO). Put plainly: microbe, parasite or virus in culture. The format is cell-based. The note with it: Rhizoctonia solani, read-out: RHIZSO in vitro Growth Inhibition.
The test system of another assay is Erysiphe graminis—ERYSGT. The experiment in a line: Powdery Mildew of Wheat, in vivo whole plant, 24 Hour Protectant. Conditions: Erysiphe, read-out: ERYSGT in vivo 1 Day Protectant.
The test system of another assay is Ustilago maydis (USTIMA). The experiment in a line: microbe, parasite or virus in culture. In kind it is cell-based. Conditions: Mycosarcoma maydis, read-out: USTIMA in vitro Growth Inhibition.
Assay [8] deals with Stagonospora nodorum (Leptosphaeria nodorum—LEPTNO). The experiment in a line: In vitro fungal growth inhibition, Stagonospora nodorum (LEPTNO). In kind it is cell-based. The note with it: Leptosphaeria, read-out: LEPTNO in vitro Growth Inhibition.
The mark [9] stands for this setting: 100 ppm spray, 24 hour protectant, wheat.
Setting [10] is: 100 ppm spray, 24 hour protectant, wheat, control of fungal infection vs untreated plants.
[11] abbreviates: 100 ppm spray, wheat, 24 hour protectant.
Where [12] appears, read: 100 ppm spray, wheat, 24 hour protectant, control of fungal infection vs untreated plants.
The mark [13] stands for this setting: wheat plants sprayed at 100 ppm, inoculated after 24 hours, control of fungal infection vs untreated plants.
The mark [14] stands for this setting: 100 ppm spray, wheat, 24 hour protectant, % control of fungal infection vs untreated plants.

Molecules are shown by their SMILES. Like-named read-outs stand apart in the source and are kept apart here.

As usually defined, the inhibition is the relative decrease from the control value, in per cent. For the compound `COc1ccnc(C(=O)N[C@H]2CC3OC2[C@H](C)[C@@H](OCc2ccccc2)[C@H]3C)c1O` (stereo partly drawn) [Compound 321], the pest or weed control at 100 ppm in [1] (setting [9]) was 25 to 74%; in the assay on Septoria tritici—SEPTTR (setting [10]), less than 25%; in assay [4] (setting [10]), less than 25%; in assay [6] it was less than 25%; in the assay with Erysiphe graminis—ERYSGT (setting [10]), less than 25%. Also, the inhibition at 25 ppm (in assay [2]; in assay [3] (25 ppm in growth medium); in assay [5]; in [7]; in the assay on Ustilago maydis (USTIMA); in assay [8] (25 ppm in growth medium)) was less than 80% in each case.
With `COc1ccnc(C(=O)Nc2cc(C)c(OC(=O)c3ccccc3)c(C)c2)c1O` [Compound 456], the pest or weed control at 100 ppm in assay [1] (setting [11]) is less than 25%; in the assay on Septoria tritici—SEPTTR (setting [12]), 25 to 74%; in assay [4] (setting [12]), less than 25%; in assay [6] it was less than 25%; in the assay on Erysiphe graminis—ERYSGT (setting [12]) it was less than 25%. Besides, the inhibition at 25 ppm was less than 80% in [2]; greater than 80% in assay [3] (25 ppm in growth medium); less than 80% in [5]; less than 80% in assay [7]; less than 80% with Ustilago maydis (USTIMA); greater than 80% in assay [8] (25 ppm in growth medium).
Turning to `COc1ccnc(C(=O)NCC2COCCOCCOCCOCCO2)c1O` (stereo not drawn) [Compound 245], the pest or weed control at 100 ppm is less than 25% in assay [1] (setting [9]); 25 to 74% in the assay with Septoria tritici—SEPTTR (setting [10]); 25 to 74% in assay [4] (setting [10]); less than 25% in assay [6]; less than 25% with Erysiphe graminis—ERYSGT (setting [10]). For the same compound, the inhibition at 25 ppm (in assay [2]; in [3] (25 ppm in growth medium); in assay [5]; in [7]; in the assay on Ustilago maydis (USTIMA); in assay [8] (25 ppm in growth medium)) was less than 80% in each case.
For the compound `COc1ccnc(C(=O)Nc2ccc(Oc3ccccc3Cl)cc2)c1O` [Compound 441], the pest or weed control at 100 ppm (in assay [1] (setting [11]); in the assay with Septoria tritici—SEPTTR (setting [12]); in assay [4] (setting [12]); in assay [6]; in the assay on Erysiphe graminis—ERYSGT (setting [12])) was less than 25% in each case. Moreover, the inhibition at 25 ppm was less than 80% in assay [2]; greater than 80% in assay [3] (25 ppm in growth medium); less than 80% in assay [5]; less than 80% in [7]; less than 80% with Ustilago maydis (USTIMA); less than 80% in assay [8] (25 ppm in growth medium).
For the compound `COc1ccc(Oc2ccc(NC(=O)c3nccc(OC)c3O)cc2)cc1` [Compound 435], the pest or weed control at 100 ppm in [1] (setting [11]) was less than 25%; with Septoria tritici—SEPTTR (setting [12]) it was less than 25%; in assay [4] (setting [12]) it was 25 to 74%; in assay [6] it was less than 25%; with Erysiphe graminis—ERYSGT (setting [12]) it was less than 25%. Also, the inhibition at 25 ppm in assay [2] is less than 80%; in assay [3] (25 ppm in growth medium), greater than 80%; in assay [5], less than 80%; in assay [7] it was less than 80%; in the assay on Ustilago maydis (USTIMA), less than 80%; in assay [8] (25 ppm in growth medium), less than 80%.
With `COc1ccnc(C(=O)NC2COC(=O)CC(c3ccccc3)C(=O)OC2)c1O` (stereo not drawn) [Compound 375], the pest or weed control at 100 ppm in [1] (setting [11]) was less than 25%; in the assay with Septoria tritici—SEPTTR (setting [12]), 25 to 74%; in assay [4] (setting [12]), 25 to 74%; in [6] it was less than 25%; in the assay with Erysiphe graminis—ERYSGT (setting [12]), less than 25%. In addition, the inhibition at 25 ppm (in assay [2]; in assay [3] (25 ppm in growth medium); in assay [5]; in assay [7]; with Ustilago maydis (USTIMA); in [8] (25 ppm in growth medium)) was less than 80% each time.
Consider `COc1ccnc(C(=O)NCC2C(C=C(C)C)C2(C)C)c1O` (stereo not drawn) [Compound 241], for which the pest or weed control at 100 ppm was 25 to 74% in [1] (setting [9]); 25 to 74% in the assay on Septoria tritici—SEPTTR (setting [10]); 25 to 74% in [4] (setting [10]); less than 25% in [6]; less than 25% with Erysiphe graminis—ERYSGT (setting [10]). Further, the inhibition at 25 ppm in assay [2] was greater than 80%; in assay [3] (25 ppm in growth medium) it was less than 80%; in assay [5], less than 80%; in assay [7], greater than 80%; in the assay with Ustilago maydis (USTIMA), less than 80%; in assay [8] (25 ppm in growth medium), less than 80%.
As for `COc1ccnc(C(=O)NC2CC(C)(C)CC(C)(C(=O)CCCc3ccccc3)C2)c1O` (stereo not drawn) [Compound 276], the pest or weed control at 100 ppm in [1] (setting [9]) is 25 to 74%; in the assay with Septoria tritici—SEPTTR (setting [10]), 25 to 74%; in [6] it was less than 25%; with Erysiphe graminis—ERYSGT (setting [10]), less than 25%. Also, the inhibition at 25 ppm was less than 80% in assay [2]; less than 80% in assay [3] (25 ppm in growth medium); less than 80% in assay [5]; less than 80% in [7]; less than 80% with Ustilago maydis (USTIMA); greater than 80% in [8] (25 ppm in growth medium). For the same compound, the “LEPTNO in vivo 1 Day Protectant” value in [4] (setting [10]) is “+ +”.
As for `O=C(NCC1CCCCC1)c1ncccc1O` [Compound 202], the pest or weed control at 100 ppm (in [1] (setting [9]); in the assay with Septoria tritici—SEPTTR (setting [10]); in assay [4] (setting [10]); in [6]; with Erysiphe graminis—ERYSGT (setting [10])) was less than 25% in each case. Also, the inhibition at 25 ppm in [2] was greater than 80%; in assay [3] (25 ppm in growth medium) it was less than 80%; in assay [5] it was greater than 80%; in assay [7] it was less than 80%; in the assay on Ustilago maydis (USTIMA), less than 80%; in [8] (25 ppm in growth medium), less than 80%.
`COc1ccnc(C(=O)NC2CC(C)(C)CC(C)(C#N)C2)c1OC(C)=O` (stereo not drawn) [Compound 574]: the pest or weed control at 100 ppm was less than 25% in assay [1] (wheat plants sprayed at 100 ppm, inoculated after 24 hours); 25 to 74% with Septoria tritici—SEPTTR (setting [13]); 25 to 74% in assay [4] (setting [13]); less than 25% in assay [6]; less than 25% in the assay on Erysiphe graminis—ERYSGT (setting [13]). The inhibition at 25 ppm (in assay [2]; in assay [3] (25 ppm in the growth medium); in assay [5]; in [7]; with Ustilago maydis (USTIMA); in [8] (25 ppm in the growth medium)) was less than 80% throughout.
Turning to `COc1ccnc(C(=O)N[C@H]2COC(=O)[C@H](Cc3ccccc3)[C@@H](OC(C)=O)[C@H](C)OC2=O)c1OC(C)=O` [Compound 596], in assay [1] (setting [14]), the “PUCCRT in vivo 1 Day Protectant” value is recorded as “+ +”. The pest or weed control at 100 ppm in the assay with Septoria tritici—SEPTTR (setting [14]) is 25 to 74%; in assay [6], less than 25%; with Erysiphe graminis—ERYSGT (setting [14]) it was less than 25%. Further, the inhibition at 25 ppm was greater than 80% in [2]; less than 80% in assay [3] (25 ppm in growth medium); greater than 80% in assay [5]; less than 80% in assay [7]; less than 80% with Ustilago maydis (USTIMA); less than 80% in assay [8] (25 ppm in growth medium). In assay [4] (setting [14]), the “LEPTNO in vivo 1 Day Protectant” value is on record as “+ +”.
With `CO/N=C(/c1ccc(NC(=O)c2nccc(OC)c2O)cc1)c1ccc(C(F)(F)F)cc1` [Compound 409], the pest or weed control at 100 ppm (in assay [1] (setting [11]); with Septoria tritici—SEPTTR (setting [12]); in assay [6]; in the assay with Erysiphe graminis—ERYSGT (setting [12])) was 25 to 74% throughout. Moreover, the inhibition at 25 ppm in [2] is greater than 80%; in [3] (25 ppm in growth medium), greater than 80%; in [5], greater than 80%; in assay [7], less than 80%; with Ustilago maydis (USTIMA), less than 80%; in [8] (25 ppm in growth medium), greater than 80%. In addition, in assay [4] (setting [12]), the “LEPTNO in vivo 1 Day Protectant” value was “+ +”.
